Assay results taken from patent publication US8420657B2 (Novartis AG, priority 2008, dated 2013).

Experiments:
[1] = test system: JAK1/JAK2-dependent nuclear translocation of STAT1-GFP in HT1080 fibrosarcoma cells; assay: STAT1 nuclear translocation assay (Cellomics), IFN-γ stimulated HT1080 STAT1-GFP cells; type: cell-based
Excerpt: The medium-throughput (96-well format) cellular automated fluorescence microscopy Cellomics assay can be routinely used to assess the functional activation of Janus Kinases (JAKs), based on the nuclear translocation of their substrate, Signal Transducer and Activator of Transcription (STAT). Nuclear translocation can be monitored either in HT1080 fibrosarcoma cells stably transfected with STAT1 fused to Green Fluorescence Protein (GFP) or in U-2 OS osteosarcoma cells stably transfected with STAT5 fused to Green Fluorescence Protein (GFP). Stimulation of HT1080 cells with interferon-γ (IFN-γ) results in JAK1/JAK2-dependent nuclear translocation of STAT1-GFP, whereas stimulation of U-2 OS cells with recombinant human erythropoietin (rhEpo) results in JAK2-dependent nuclear translocation of STAT5-GFP, both of which can be quantified using the Cellomics Cyto/NucTrans software package. This assay may be used to provide an assessment of the nuclear-cytoplasmic differential (NCD) of STAT-GFP using Hoechst dye to define the boundaries of the nucleus.
HT1080 fibrosarcoma cells may be obtained from ATCC and can be cultured in alpha Modified Eagle Medium with 10% FCS. Cells can be transfected with pEGFP-N2 STAT1 using Fugene 6 Transfection Reagent following the manufacturers' protocol. 24 hours after transfection the medium can be replaced and selected in 1 mg/ml Geneticin.
Compounds can be dissolved in DMSO to a final stock concentration of 10 mM and stored as aliquots at 4° C. Compounds may be pre-diluted in 100% DMSO at 10 mM, 3 mM 1 mM, 0.3 mM, 0.1 mM, 0.03 mM, 0.01 mM and 0.003 mM. Subsequently, compounds may be diluted in medium and added in 50 μl to the cells. The final compound concentrations tested may be 10 μM, 3 μM 1 μM, 0.3 μM, 0.1 μM, 0.03 μM, 0.01 μM and 0.003 μM and the final DMSO concentration can be 0.1%.
HT1080 STAT1-GFP cells may be seeded at a density of 10,000 cells per well in clear-bottom black 96-well Packard View-Plates™. 16-24 hours later, the cells can be treated for 2 hours with 100 ng/ml IFN-γ, washed twice in pre-warmed PBS and fixed in 200 μl of pre-warmed fixation solution (PBS, 3.7% Formaldehyde) for 10 minutes. The plates may be washed twice in 200 μl PBS and incubated, protected from light, in 100 μl of DNA-staining solution (PBS, 0.5 μg/ml Hoechst-33342) for 1 minute. The plates may then be washed once in PBS, and 200 μl PBS finally added per well. The plates, being finally covered with a black adhesive, may be either read directly or stored at 4° C. for later imaging. Where appropriate, the compounds may be added 30 min before stimulation with IFN-γ.
The plates can be read on a Cellomics® ArrayscanII automated fluorescence microscope plate reader equipped with a Mercury-Xenon white light illumination source and a Zeiss Axiovert inverted microscope, using the XF100 dichroic/emission filter cube and matching excitation filters, 10× magnification, and a 0.3 numerical aperture objective. Image acquisition and analysis can be performed using a customized protocol based on the ‘NuclearTranslocation’ Bioapplication. For each well, multiple images (fields) can be acquired until a minimum of 1000 cells are counted using two 2 channels: Channel 1 (Hoechst)=focus+nuclear mask, Channel 2 (GFP)=signal quantification in mask areas as outlined below. Nuclei may be first identified based on the Hoechst staining and a mask generated for each nucleus that then serves as a template to generate a circle (eroded inwards by 1 pixel) and a 3 pixel-wide collar-like ring (off-set outwards by 1 pixel), in which the nuclear and cytoplasmic intensity of GFP, respectively, are quantified in the corresponding channel. High content analysis yields numerous measurements per cell and the GFP intensity differential between the nuclear and the cytoplasmic masks may be chosen as a measure of sub-cellular STAT-GFP relocation. The resulting values may be averaged for all cells in the well to return a single measurement plus standard deviation. […]

[2] = biological target: T1, GST-JAK2(808-1132) (Homo sapiens, UniProt O60674); assay: JAK2 kinase assay (Caliper mobility shift, LabChip 3000); type: biochemical
T1 construct: GST-JAK2(808-1132); purchased Invitrogen (Carlsbad, USA) #4288
How it was run: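 Recombinant GST-JAK2(808-1132) kinase domain with FITC-labelled JAK3tide peptide substrate and ATP; 60 min at 30 °C, EDTA stop. Substrate/product ratio read by microfluidic mobility shift; compounds at 8 final concentrations, 10 to 0.003 μM.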

[3] = Homo sapiens, HT-1080, STAT1 translocation pathway

T1 sequence (O60674 808-1132): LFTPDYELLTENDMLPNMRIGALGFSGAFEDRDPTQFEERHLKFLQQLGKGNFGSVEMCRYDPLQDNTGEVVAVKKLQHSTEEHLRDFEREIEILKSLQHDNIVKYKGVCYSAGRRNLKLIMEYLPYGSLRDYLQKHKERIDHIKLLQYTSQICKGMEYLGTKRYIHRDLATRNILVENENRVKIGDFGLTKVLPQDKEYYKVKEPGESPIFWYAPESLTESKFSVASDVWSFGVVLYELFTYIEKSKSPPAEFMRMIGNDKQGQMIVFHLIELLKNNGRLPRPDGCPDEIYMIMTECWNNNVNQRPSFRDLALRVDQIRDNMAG

CC(C)Oc1ccc(Nc2ncc3ccn(-c4ccc(C(C)N5CCOCC5)cc4)c3n2)cc1 (racemic) [Example 193, (4-Isopropoxy-phenyl)-{7-[4-(1-morpholin-4-yl-ethyl)-phenyl]-7H-pyrrolo[2,3-d]pyrimidin-2-yl}-amine]
IC50 [1, 3]: 351 nM | IC50 [2]: 8.4 nM

C[C@@H]1CN(Cc2ccc(Nc3ncc4ccn(-c5cc(F)c(CN6CCOCC6)c(F)c5)c4n3)cc2)[C@@H](C)CN1 (racemic) [Example 260, [7-(3,5-Difluoro-4-morpholin-4-ylmethyl-phenyl)-7H-pyrrolo[2,3-d]pyrimidin-2-yl]-[4-((2S,5R)-2,5-dimethyl-piperazin-1-ylmethyl)-phenyl]-amine]
IC50 [1, 3]: 280 nM | IC50 [2]: 5 nM

C[C@@H]1CN(Cc2ccc(Nc3ncc4ccn(-c5cc(F)c(C(=O)N6CCOCC6)c(F)c5)c4n3)cc2)[C@@H](C)CN1 (racemic) [Example 261, (4-{2-[4-((2S,5R)-2,5-Dimethyl-piperazin-1-ylmethyl)-phenylamino]-pyrrolo[2,3-d]pyrimidin-7-yl}-2,6-difluoro-phenyl)-morpholin-4-yl-methanone]
IC50 [1, 3]: 180 nM | IC50 [2]: 12 nM

C[C@@H]1CN[C@@H](C)CN1c1ccc(Nc2ncc3ccn(-c4cc(F)c(C(=O)N5CCOCC5)c(F)c4)c3n2)cn1 (racemic) [Example 269, (4-{2-[6-((2R,5S)-2,5-Dimethyl-piperazin-1-yl)-pyridin-3-ylamino]-pyrrolo[2,3-d]pyrimidin-7-yl}-2,6-difluoro-phenyl)-morpholin-4-yl-methanone]
IC50 [1, 3]: 465 nM | IC50 [2]: 10 nM

C[C@@H]1CN[C@@H](C)CN1c1ccc(Nc2ncc3ccn(-c4cc(F)c(CN5CCOCC5)c(F)c4)c3n2)cn1 (racemic) [Example 271, [7-(3,5-Difluoro-4-morpholin-4-ylmethyl-phenyl)-7H-pyrrolo[2,3-d]pyrimidin-2-yl]-[6-((2R,5S)-2,5-dimethyl-piperazin-1-yl)-pyridin-3-yl]-amine]
IC50 [1, 3]: 65 nM | IC50 [2]: 3.1 nM

C[C@@H]1CN[C@@H](C)CN1c1ccc(Nc2ncc3ccn(-c4ccc(S(C)(=O)=O)cc4)c3n2)cn1 (racemic) [Example 274, [6-((2R,5S)-2,5-Dimethyl-piperazin-1-yl)-pyridin-3-yl]-[7-(4-methanesulfonyl-phenyl)-7H-pyrrolo[2,3-d]pyrimidin-2-yl]-amine]
IC50 [1, 3]: 520 nM | IC50 [2]: 7.2 nM

CCOc1ccc(Nc2ncc3ccn(-c4ccc(S(C)(=O)=O)cc4)c3n2)cc1OCC [Example 1, (3,4-Diethoxy-phenyl)-[7-(4-methanesulfonyl-phenyl)-7H-pyrrolo[2,3-d]pyrimidin-2-yl]-amine]
IC50 [1, 3]: 43.5 nM | IC50 [2]: < 3 nM

CN1CCN(C(=O)c2ccc(Nc3ncc4ccn(-c5cc(F)c(CN6CCOCC6)c(F)c5)c4n3)cc2)CC1 [Example 2, {4-[7-(3,5-Difluoro-4-morpholin-4-ylmethyl-phenyl)-7H-pyrrolo[2,3-d]pyrimidin-2-ylamino]-phenyl}-(4-methyl-piperazin-1-yl)-methanone]
IC50 [1, 3]: 190 nM | IC50 [2]: 3.2 nM

CC(C)Oc1ccc(Nc2ncc3ccn(-c4ccc(S(C)(=O)=O)cc4)c3n2)cc1 [Example 3, (4-Isopropoxy-phenyl)-[7-(4-methanesulfonyl-phenyl)-7H-pyrrolo[2.3-d]pyrimidin-2-yl]-amine]
IC50 ([1]; STAT1 translocation pathway): 98.5 nM | IC50 [2]: 9.4 nM

COc1cc(Nc2ncc3ccn(-c4ccc(S(C)(=O)=O)cc4)c3n2)cc(OC)c1OC [Example 4, [7-(4-Methanesulfonyl-phenyl)-7H-pyrrolo[2,3-d]pyrimidin-2-yl]-(3,4,5-trimethoxy-phenyl)-amine]
IC50 [1, 3]: 36.7 nM | IC50 [2]: 2.2 nM

COc1ccc(Nc2ncc3ccn(-c4ccc(C(=O)NC(C)(C)C)cc4)c3n2)cc1OC [Example 7, N-tert-Butyl-4-[2-(3,4-dimethoxy-phenylamino)-pyrrolo[2,3-d]pyrimidin-7-yl]-benzamide]
IC50 [1, 3]: 254 nM | IC50 [2]: 6.2 nM

COc1cc(Nc2ncc3ccn(-c4ccc(S(=O)(=O)NC(C)(C)C)cc4)c3n2)cc(OC)c1OC [Example 8, N-tert-Butyl-4-[2-(3,4,5-trimethoxy-phenylamino)-pyrrolo[2,3-d]pyrimidin-7-yl]-benzenesulfonamide]
IC50 [1, 3]: 32 nM | IC50 [2]: < 3 nM

CCN(CC)C(=O)N1CCN(c2ccc(Nc3ncc4ccn(-c5ccc(S(C)(=O)=O)cc5)c4n3)cc2)CC1 [Example 13, 4-{4-[7-(4-Methanesulfonyl-phenyl)-7H-pyrrolo[2,3-d]pyrimidin-2-ylamino]-phenyl}-piperazine-1-carboxylic acid diethylamide]
IC50 [1, 3]: 32 nM | IC50 [2]: 3.8 nM

CN1CCC(c2ccc(Nc3ncc4ccn(-c5ccc(S(C)(=O)=O)cc5)c4n3)cc2)CC1 [Example 16, [7-(4-Methanesulfonyl-phenyl)-7H-pyrrolo[2,3-d]pyrimidin-2-yl]-[4-(1-methyl-piperidin-4-yl)-phenyl]-amine]
IC50 [1, 3]: 25 nM | IC50 [2]: < 3 nM

CN1CCN(c2cccc(Nc3ncc4ccn(-c5ccc(S(C)(=O)=O)cc5)c4n3)c2)CC1 [Example 17, [7-(4-Methanesulfonyl-phenyl)-7H-pyrrolo[2,3-d]pyrimidin-2-yl]-[3-(4-methyl-piperazin-1-yl)-phenyl]-amine]
IC50 [1, 3]: 20.5 nM | IC50 [2]: < 3 nM

COc1ccc(Nc2ncc3ccn(-c4ccc(S(C)(=O)=O)cc4)c3n2)cc1OCCCN(C)C [Example 27, [3-(3-Dimethylamino-propoxy)-4-methoxy-phenyl]-[7-(4-methanesulfonyl-phenyl)-7H-pyrrolo[2,3-d]pyrimidin-2-yl]-amine]
IC50 [1, 3]: 85 nM | IC50 [2]: < 3 nM

COc1ccc(Nc2ncc3ccn(-c4ccc(S(C)(=O)=O)cc4)c3n2)cc1OCCN1CCOCC1 [Example 29, [7-(4-Methanesulfonyl-phenyl)-7H-pyrrolo[2,3-d]pyrimidin-2-yl]-[4-methoxy-3-(2-morpholin-4-yl-ethoxy)-phenyl]-amine]
IC50 [1, 3]: 91 nM | IC50 [2]: < 3 nM

CS(=O)(=O)c1ccc(-n2ccc3cnc(Nc4ccc(C(=O)N5CCOCC5)cc4)nc32)cc1 [Example 30, {4-[7-(4-Methanesulfonyl-phenyl)-7H-pyrrolo[2,3-d]pyrimidin-2-ylamino]-phenyl}-morpholin-4-yl-methanone]
IC50 [1, 3]: 204 nM | IC50 [2]: < 3 nM

COc1ccc(Nc2ncc3ccn(-c4ccc(S(C)(=O)=O)cc4)c3n2)cc1OCCN1CCCC1 [Example 31, [7-(4-Methanesulfonyl-phenyl)-7H-pyrrolo[2,3-d]pyrimidin-2-yl]-[4-methoxy-3-(2-pyrrolidin-1-yl-ethoxy)-phenyl]-amine]
IC50 [1, 3]: 46 nM | IC50 [2]: < 3 nM

CS(=O)(=O)c1ccc(-n2ccc3cnc(Nc4ccc(OCCN5CCOCC5)cc4)nc32)cc1 [Example 34, [7-(4-Methanesulfonyl-phenyl)-7H-pyrrolo[2,3-d]pyrimidin-2-yl]-[4-(2-morpholin-4-yl-ethoxy)-phenyl]-amine]
IC50 [1, 3]: 69.5 nM | IC50 [2]: < 3 nM

CCN(CC)CCOc1cccc(Nc2ncc3ccn(-c4ccc(S(C)(=O)=O)cc4)c3n2)c1 [Example 36, [3-(2-Diethylamino-ethoxy)-phenyl]-[7-(4-methanesulfonyl-phenyl)-7H-pyrrolo[2,3-d]pyrimidin-2-yl]-amine]
IC50 [1, 3]: 10.9 nM | IC50 [2]: < 3 nM
